Laboratory results taken from PubChem BioAssay (NCI).
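Results reflect a 48-hour exposure of cells in 96-well plates to compound at five concentrations. Abbreviation: GI50, concentration required for 50% inhibition of growth. Definition used: TGI = concentration required for complete inhibition of growth.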

Key:
Experiment in all cases: DTP human tumour cell line panel, 48 h
[1] = test system: 786-0 renal
[2] = test system: A498 renal
[3] = test system: A549 NSCLC
[4] = test system: ACHN renal
[5] = test system: BT-549 breast
[6] = test system: CAKI-1 renal
[7] = test system: CCRF-CEM leukemia
[8] = test system: COLO 205 colon
[9] = test system: DU-145 prostate
[10] = test system: HCC-2998 colon
[11] = test system: HCT-116 colon
[12] = test system: HCT-15 colon
[13] = test system: HL-60(TB) leukemia
[14] = test system: HOP-62 NSCLC
[15] = test system: HOP-92 NSCLC
[16] = test system: HS 578T breast
[17] = test system: HT29 colon
[18] = test system: IGROV1 ovarian
[19] = test system: K-562 leukemia
[20] = test system: KM12 colon
[21] = test system: LOX IMVI melanoma
[22] = test system: M14 melanoma
[23] = test system: MALME-3M melanoma
[24] = test system: MCF7 breast
[25] = test system: MDA-MB-231 breast
[26] = test system: MDA-MB-435
[27] = test system: MOLT-4 leukemia
[28] = test system: NCI-H226 lung
[29] = test system: NCI-H23 lung
[30] = test system: NCI-H460 lung
[31] = test system: NCI-H522 lung
[32] = test system: NCI/ADR-RES ovarian
[33] = test system: OVCAR-3 ovarian
[34] = test system: OVCAR-4 ovarian
[35] = test system: OVCAR-5 ovarian
[36] = test system: OVCAR-8 ovarian
[37] = test system: PC-3 prostate
[38] = test system: RPMI-8226 leukemia
[39] = test system: RXF 393 renal
[40] = test system: SF-268 CNS
[41] = test system: SF-539 CNS
[42] = test system: SK-MEL-2 melanoma
[43] = test system: SK-MEL-28 melanoma
[44] = test system: SK-MEL-5 melanoma
[45] = test system: SK-OV-3 ovarian
[46] = test system: SN12C renal
[47] = test system: SNB-19 CNS
[48] = test system: SR leukemia
[49] = test system: SW-620 colon
[50] = test system: T-47D breast
[51] = test system: TK-10 renal
[52] = test system: U251 CNS
[53] = test system: UACC-257 melanoma
[54] = test system: UACC-62 melanoma
[55] = test system: UO-31 renal

## COc1cc2ccnc(C=O)c2cc1OC
[1]
  GI50: 18.3 µM
  TGI: > 100 µM
[2]
  GI50: > 100 µM
  TGI: > 100 µM
[3]
  GI50: > 100 µM
  TGI: > 100 µM
[4]
  GI50: 4.71 µM
  TGI: 54.8 µM
[5]
  GI50: 2.68 µM
  TGI: 7.14 µM
[6]
  GI50: 23 µM
  TGI: 85.2 µM
[7]
  GI50: 3.08 µM
  TGI: 22.1 µM
[8]
  GI50: > 100 µM
  TGI: > 100 µM
[9]
  GI50: 4.83 µM
  TGI: > 100 µM
[10]
  GI50: 23.8 µM
  TGI: > 100 µM
[11]
  GI50: 1.92 µM
  TGI: 14.8 µM
[12]
  GI50: 3.43 µM
  TGI: > 100 µM
[13]
  GI50: 2.2 µM
  TGI: 5.89 µM
[14]
  GI50: 18.2 µM
  TGI: 98.1 µM
[15]
  GI50: 1.18 µM
  TGI: 5.93 µM
[16]
  GI50: 23.8 µM
  TGI: > 100 µM
[17]
  GI50: 3.3 µM
  TGI: > 100 µM
[18]
  GI50: 22.8 µM
  TGI: > 100 µM
[19]
  GI50: 4.84 µM
  TGI: > 100 µM
[20]
  GI50: 31.9 µM
  TGI: > 100 µM
[21]
  GI50: 10.1 µM
  TGI: > 100 µM
[22]
  GI50: 4.98 µM
  TGI: 28.5 µM
[23]
  GI50: 14.7 µM
  TGI: > 100 µM
[24]
  GI50: 3.64 µM
  TGI: > 100 µM
[25]
  GI50: 6.51 µM
  TGI: 75.1 µM
[26]
  GI50: 2.63 µM
  TGI: 24.9 µM
[27]
  GI50: 4.52 µM
  TGI: 41.4 µM
[28]
  GI50: 29.9 µM
  TGI: > 100 µM
[29]
  GI50: 24.9 µM
  TGI: > 100 µM
[30]
  GI50: > 100 µM
  TGI: > 100 µM
[31]
  GI50: 12.5 µM
  TGI: 31.3 µM
[32]
  GI50: 16 µM
  TGI: > 100 µM
[33]
  GI50: 6.36 µM
  TGI: 90.6 µM
[34]
  GI50: 5.11 µM
  TGI: 24.2 µM
[35]
  GI50: 17 µM
  TGI: > 100 µM
[36]
  GI50: 5.45 µM
  TGI: 63.4 µM
[37]
  GI50: 23.9 µM
  TGI: > 100 µM
[38]
  GI50: 3.44 µM
  TGI: 34.8 µM
[39]
  GI50: 1.45 µM
  TGI: 4.98 µM
[40]
  GI50: 23.5 µM
  TGI: > 100 µM
[41]
  GI50: 5.65 µM
  TGI: 29.7 µM
[42]
  GI50: 37.1 µM
  TGI: > 100 µM
[43]
  GI50: 12.4 µM
  TGI: > 100 µM
[44]
  GI50: 10.7 µM
  TGI: 23.6 µM
[45]
  GI50: > 100 µM
  TGI: > 100 µM
[46]
  GI50: 12.1 µM
  TGI: > 100 µM
[47]
  GI50: > 100 µM
  TGI: > 100 µM
[48]
  GI50: 0.696 µM
  TGI: > 100 µM
[49]
  GI50: 4.15 µM
  TGI: > 100 µM
[50]
  GI50: 14 µM
  TGI: > 100 µM
[51]
  GI50: 6.02 µM
  TGI: 44.1 µM
[52]
  GI50: 28.7 µM
  TGI: > 100 µM
[53]
  GI50: 18.9 µM
  TGI: > 100 µM
[54]
  GI50: 6.87 µM
  TGI: 38.1 µM
[55]
  GI50: 3.98 µM
  TGI: 42.2 µM
